Experimental data taken from patent US5013724A, “Process for the sulfation of glycosaminoglycans, the sulfated glycosaminoglycans and their biological applications” (Sanofi Societe Anonyme, priority 1986, dated 1991).

What was measured:
[1] = test system: thrombus formation; test: anti-thrombotic activity in vivo in the rabbit, Wessler model (human thromboplastin as thrombogenic agent); settings: dose of 100 μg/kg
Description: (d) anti-thrombotic activity in vivo in the rabbit, according to the model of Wessler (such as that described by Wessler, S., Reimer, S. M. and Sheps, M. C., in J. Appl. Physiol. 14 (6), 943-946, 1959).
The test substance is injected into the carotid artery, at doses varying from 10 to 500 μg/kg, 3 mn before the administration of the thrombogenic agent (human thromboplastin).
The result is expressed as percentage of inhibition of thrombus formation.

[2] = test system: plasma; test: additional experiments in plasma on cofactor dependence
[3] = test system: factor IIa (thrombin); test: inhibitory activity towards factor IIa (thrombin) in the presence of HC II; type: biochemical; settings: Experiment 1
Description: (§1) (b) inhibitory activity towards the activated factor II (factor IIa) or thrombin.
(§2) The results are expressed in μg of product per ml.
(§3) In this model system, the inhibition of factor IIa is determined by measuring the IC 50 of the test substances in the presence of AT-III and HC II.

[4] = test system: blood coagulation; test: coagulation time by the APTT method; type: biochemical; settings: Experiment 1
Description: (c) measurement of the coagulation time by the APTT method (as described in Caen, J., Larrieu, M. J., and Samama, in Hemostase, paris, Expansion Scientifique Francaise, 1968, pp 133-135).
In the present instance, the concentration of the product to be tested necessary for a doubling of the coagulation time is determined.
The result is expressed in μg of substance tested per ml.

[5] = test system: factor IIa (thrombin); test: inhibitory activity towards factor IIa (thrombin) in the presence of AT-III; type: biochemical; settings: Experiment 1
Description: as §1, §2, §3

Dermatan sulfate
prevention of thrombus formation [1]: ~40% | cofactor dependence of the action in plasma [2]: totally dependent on HC 11 | Anti-IIa activity, HC II, IC 50 [3]: 5.8 µg/mL | activity in the APTT model (in words) [4]: sursulfation increases the activity | Concentration necessary to double the coagulation time ([4]; APTT method): 50 µg/mL | Anti-IIa activity, AT-III, IC 50 [5]: 100 µg/mL
